Values quoted from earlier work in US20220304303A1, “INSECT REPELLENT PATCHES” (The Natural Patch Company Pty Ltd, priority 2021, published 2022).

Details: products containing between 10% and 30% DEET, used as directed

SMILES: CCN(CC)C(=O)c1cccc(C)c1 [DEET, Diethyltoluamide]
- safety in use on children and adults: safe to use on children, as well as adults
